Assay: gradient 5% acetonitrile 3 min, to 50% in 2 min, to 85% in 15 min, held 3 min, 100 µL/min
Conditions: column: Zorbax Extend-C18 2.1 x 50 mm; eluents: water / acetonitrile, 0.1% formic acid
Method in brief: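 The system's dead and dwell volumes were 40 μL and 900 μL, with a Zorbax Extend-C18 column (2.1 × 50 mm, 1.8 μm) run at 100 μL/min in water and acetonitrile containing 0.1% formic acid each. Pure standards were analyzed in mixtures of ~100 molecules by HPLC–quadrupole time-of-flight mass spectrometry in positive and negative ionization mode. Retention time was assigned from computationally picked, manually inspected adduct peaks.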

| SMILES | RP-LC retention time |
| --- | --- |
| Cc1ccc(S(=O)(=O)N2CC(c3nnc(-c4ccncc4)o3)C3(CCOCC3)C2)cc1 (configuration not stated) | 697 s |
| O=C(Nc1ccc(F)c(Cl)c1)N1CCCC(Cn2c(C3CC3)nc3cccnc32)C1 (configuration not stated) | 744 s |
| Cc1nnc(NC(=O)CSc2ccc(-c3sc(-c4cccnc4)nc3C)nn2)s1 | 622 s |
| COc1cccc(-c2csc(-c3nnn(-c4cccc(Cl)c4)c3N)n2)c1 | 1170 s |
| CC(C)Cc1noc(C2(F)CCN(S(=O)(=O)c3cccc(Cl)c3)CC2)n1 | 1190 s |
| CC(=O)NCc1ccc(-c2noc(-c3cccc(Br)c3)n2)s1 | 922 s |
| COc1ccc(C2Cn3cnc(C(=O)N4CCC(C(=O)NC5CCCCC5)CC4)c3CO2)cc1 (configuration not stated) | 697 s |
| CN1CCCC1c1nc(C2CN(C(=O)c3cnccn3)C2)no1 (configuration not stated) | 546 s |
| CCc1ccc(-c2noc(Cn3nc(-c4ccc5c(c4)OCO5)ccc3=O)n2)cc1 | 1200 s |
| FC(F)(F)c1nc2ccccc2n1CC1CCN(Cc2cn3ccccc3n2)CC1 | 557 s |
| Cc1cccc(CNC(=O)c2cn3ccncc3n2)c1 | 705 s |
| O=C(Cn1c(-c2cccs2)cc2cc(Cl)ccc21)N1CCN(c2ccccn2)CC1 | 809 s |
| COc1cc(-c2oc3cc(O)cc(O)c3c(=O)c2OC[C@@H]2OC(O[C@@H]3O[C@@H](C)[C@H](O)[C@@H](O)[C@H]3O)[C@@H](O)[C@H](O)[C@@H]2O)ccc1O (some centres not stated) | 638 s |
| Fc1ccc(C2Cn3nnc(-c4nc(-c5ccc(Cl)cc5)no4)c3CO2)cc1 (configuration not stated) | 1230 s |
| Cc1ccc(NS(=O)(=O)c2c(C)nc3sc4cc(C)ccc4n3c2=O)cc1 | 1160 s |
| Cc1ccn2cc(-c3ccc(NS(=O)(=O)c4ccc5nc(C)sc5c4)cc3)nc2n1 | 641 s |
| O=C(Nc1cn(-c2ccc(C(=O)N3CCN(c4cccc(Cl)c4)CC3)cc2)cn1)C1CC1 | 810 s |
| Nc1ccccc1NC(=O)c1ccc(CNc2nccc(-c3cccnc3)n2)cc1 | 664 s |
| O=C(NCC1CCCCC1)c1sc2ncccc2c1-n1cccc1 | 1190 s |
| O=C(NCCCN1CCCC1)C1CCN(c2nc3cccnc3s2)CC1 | 585 s |
| O=C(CSc1ccc(N2CCCC(C(=O)NC3CC3)C2)nn1)Nc1cccc(F)c1 (configuration not stated) | 611 s |
| Cc1ncsc1C1N(C2CCN(C(=O)Nc3ccccc3)CC2)C(=O)C12CCCC2 (configuration not stated) | 749 s |
| CCOC(=O)c1ccc(NC(=O)N2CCc3nc[nH]c3C2)cc1 | 609 s |

| SMILES | RP-LC retention time |
| --- | --- |
| O=[N+]([O-])c1ccc(Sc2ncccn2)c([N+](=O)[O-])c1 | 900 s |
| CC(C)c1ccc(-n2ccnc(NC(=O)Nc3cccc(F)c3)c2=O)cc1 | 1140 s |
| Cc1ccc(Cl)c(NC(=O)C2CCc3nc(N4CCOCC4)ncc3C2)c1 (configuration not stated) | 865 s |
| Cc1cc(C(=O)Nc2nnc(-c3csc(C)n3)o2)c(C)o1 | 599 s |
| Cc1cc(-c2cc(S(=O)(=O)NCCc3ccc(Cl)cc3)c(C)s2)n[nH]1 | 915 s |
| COCCn1c(CCCC(=O)NCc2cccnc2)nc2cccnc21 | 534 s |
| CC[C@H](C)[C@H](NC(=O)N1C[C@@H]2C[C@@H](C1)c1cccc(=O)n1C2)C(=O)O | 598 s |
| CCOC(=O)CCC(=O)N1CCN(Cc2nc(C(C)(C)C)cs2)CC1 | 611 s |
| O=C(NCC1CCCO1)c1nc(-c2ccc(N3CCCC3)cc2)no1 (configuration not stated) | 982 s |
| CCCNC(=O)C1CCCN(c2nc(C)nc3onc(C)c23)C1 (configuration not stated) | 690 s |
| O=C(Nc1ccc(N2CCOCC2)cc1)C1CCCN(c2ccnc(-c3cccc(F)c3)n2)C1 (configuration not stated) | 649 s |
| CC(C)CN1CCC(N2CC(COc3ccccc3)C3(CCOCC3)C2)CC1 (configuration not stated) | 574 s |
| Nc1nnc(Cc2ccc3c(c2)OCCO3)o1 | 589 s |
| CC(C)NC(=O)N1CCC(c2noc(-c3cnccn3)n2)C1 (configuration not stated) | 624 s |
| O=C(O)CCCCC(CCSCc1ccccc1)SCc1ccccc1 (configuration not stated) | 670 s |
| CC(C)(C)C(=O)N1CCN(Cc2noc(-c3ccc(F)cc3)n2)CC1 | 712 s |
| O=C(Nc1ccccc1F)N1CCN(CCn2c(C(F)(F)F)nc3cccnc32)CC1 | 624 s |
| CC(=O)N1CCC2(CC1)OC(=O)C(C)=C2C(=O)NC1CCN(Cc2ccccc2)CC1 | 581 s |
| Cc1ccc(Nc2c(-c3ccc(Cl)cc3)nc3ccc(Cl)cn23)cc1 | 1060 s |
| Cc1n[nH]c(C)c1CNC(=O)C1CCN(C(=O)c2ncn3c2COC(c2ccc(F)cc2)C3)CC1 (configuration not stated) | 627 s |
| CCn1cc(CN2CCC(N3C(=O)C4(CCCC4)C3c3ccccc3)CC2)cn1 (configuration not stated) | 673 s |
| Nc1ccc2c(c1Cl)C(=O)c1ccc(N)c(Cl)c1C2=O | 854 s |

Results, then the molecule that gave them:

| RP-LC retention time | SMILES |
| --- | --- |
| 789 s | Cc1nc(-c2nc(-c3cccs3)cs2)cn1CC(=O)NCc1ccc(F)cc1 |
| 889 s | O=C(CCCc1nnc(C(=O)Nc2ccccc2)s1)NCCc1c[nH]c2ccc(Cl)cc12 |
| 985 s | O=c1[nH]nc(-c2cc(-c3ccccc3)nc3ccccc23)o1 |
| 1030 s | O=C(Nc1ccc(-c2nc(-c3ccccc3)no2)cc1)C1CC(=O)N(c2ccccc2)C1 (configuration not stated) |
| 599 s | CCCC(=O)Nc1ccc(CCc2nc3ccc(C(=O)NC4CC4)cc3[nH]2)cc1 |
| 984 s | COC(=O)c1cccc(NC(=O)c2csc(-c3cn(C)c4ncccc34)n2)c1 |
| 788 s | COc1ccc(NC(=O)c2ccc(-c3ccc(-c4noc(C)n4)cc3C)cc2)cc1OCCN(C)C |
| 860 s | Cc1cc(C)c(NC(=O)Cn2c(N(C)Cc3ccccc3)nc(C)cc2=O)c(C)c1 |
| 703 s | COc1ccc(CCN2C(=O)CC(Sc3ccccc3C(=O)O)C2=O)cc1OC (configuration not stated) |
| 640 s | COc1ccc(C(C)NC(=O)Cc2cn(C)c3ncccc23)cc1OC (configuration not stated) |
| 686 s | CCc1cccc(C)c1Nc1c(-c2ccc(O)c(OC)c2)nc2ncccn12 |
| 1000 s | O=c1n(CCc2ccccc2)nc2c(S(=O)(=O)N3CCCCCC3)cccn12 |
| 829 s | COc1cc(OC)cc(N2C(=O)c3cc(C)nn3CC2(C)C(=O)NCc2ccc(F)cc2)c1 (configuration not stated) |
| 1010 s | CCCn1c(=O)sc2cc(S(=O)(=O)N3CCC(C(=O)Nc4ccc(C)cc4)CC3)ccc21 |
| 1030 s | CC(C)Cn1c(=O)c2cc(C(=O)NC(C)c3ccco3)nn2c2ccccc21 (configuration not stated) |
| 707 s | Cc1cccc(Nc2ncccc2C(=O)O)c1C |
| 804 s | COC(=O)C1=CN(c2ccc(OC)cc2)c2ccc(F)cc2S1(=O)=O |
| 621 s | CN(C)c1ccc(N2CCC(C(=O)NCCc3c[nH]c4ccccc34)CC2)nn1 |
| 908 s | CCOc1ccc(-c2noc(CSc3nccn3-c3ccc(C)cc3)n2)cc1OC |
| 734 s | COc1ncccc1C(=O)NCCCn1nc(-c2ccc(F)cc2)ccc1=O |
| 738 s | Cc1ccccc1OCC(=O)Nc1nnc(C2CC(=O)N(c3ccc(F)cc3)C2)o1 (configuration not stated) |

| RP-LC retention time | SMILES |
| --- | --- |
| 1140 s | CCC(CC)COC(=O)c1[nH]c2c(c1C)C(=O)CC(c1ccc(OC)c(OC)c1)C2 (configuration not stated) |
| 823 s | COc1cc(NC(=O)CN2C(=O)C(C)(C)c3cc(C)ccc32)cc(OC)c1OC |
| 735 s | CC(C)(C)NC(=O)N1CCC(CNC(=O)CSCc2ccccc2)CC1 |
| 710 s | O=C(Cn1c2c(c3ccccc31)CCC2)NCCn1ncccc1=O |
| 916 s | CCCCNC(=O)c1nc(Nc2ccc(CC)cc2)c2ccccc2n1 |
| 735 s | CCn1cnc2ccc(-c3noc(CCc4c[nH]c5ccccc45)n3)cc21 |
| 737 s | CCOC(=O)CNC(=O)NCc1cccn1Cc1ccccc1C |
| 579 s | CCC(=O)N1CCc2cc(N3CC(C(=O)NCc4cccnc4)CC3=O)ccc21 (configuration not stated) |
| 945 s | CCOc1ccccc1CNC(=O)c1nnc(-c2ccc(S(=O)(=O)N(C)C)cc2)o1 |
| 957 s | Cc1ccc(NC(=O)CSc2nnc3c4cc(-c5ccccc5)nn4ccn23)c(Cl)c1 |
| 714 s | COCCn1c(-c2cccc(OC)c2)cnc1NC(=O)Nc1cccc(Cl)c1 |
| 630 s | Cn1c(N2CCCC(C(=O)NCCCN3CCC(Cc4ccccc4)CC3)C2)cc(=O)n(C)c1=O (configuration not stated) |
| 871 s | CCN1C(=O)c2cccnc2Sc2cc(NC(=O)CCc3ccccc3OC)ccc21 |
| 597 s | Cn1c(N2CCCC(C(=O)N3CCN(Cc4ccccc4)CC3)C2)cc(=O)n(C)c1=O (configuration not stated) |
| 865 s | CCc1ccc(CNC(=O)CCc2nc(N3CCCC3)c3c(C)noc3n2)cc1 |
| 902 s | CCOc1ccccc1NC(=O)N1CCC2(CC1)N=C(c1cccc(F)c1)C(=O)N2 |
| 682 s | COc1ccc(CC(=O)Nc2nnc(SCC(=O)NC3=NCCS3)s2)cc1 |
| 1020 s | COc1ccccc1-c1nc(C2CC(=O)N(c3ccc(F)c(Cl)c3)C2)no1 (configuration not stated) |
| 632 s | CCN(CC)c1cc(CNC(=O)Nc2cc(OC)ccc2OC)ccn1 |
| 846 s | CCOC(=O)C(Cc1ccc(O)cc1)Nc1nc2ccccc2o1 (configuration not stated) |
| 980 s | O=C(NCc1ccc2c(c1)OCO2)C(=O)c1cccn1Cc1ccccc1 |

Reference: the METLIN SMRT retention time set (Domingo-Almenara et al. 2019)
